In brackets after ≈: the same amount, converted by molar mass. Where a SMILES comes first, the peptide text is derived from it. Bridges are numbered along the chain shown (N, C = ends). Roman numbers before positions name the chains, in order. [ ]: non-standard residue; d: D form. Thr(ol) = C[C@@H](O)[C@H](N)CO; pGlu = O=C1CC[C@@H](C(=O)O)N1; Tle = CC(C)(C)[C@H](N)C(=O)O; Hiv = CC(C)[C@H](O)C(=O)O; dDab = NCC[C@@H](N)C(=O)O; hSer = N[C@@H](CCO)C(=O)O; Dab = NCC[C@H](N)C(=O)O; Dap = NC[C@H](N)C(=O)O
Key:
Type in all cases: cell-based
[1] = system: Acinetobacter baumannii 872842; conditions: 872842
Method in brief: (§1)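 Cation-adjusted MH-II broth, 0.002% polysorbate 80, inoculum near 10^6 CFU/mL. MIC read visually after 18-20 h, 35° C; units μg/mL.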

[2] = system: Acinetobacter baumannii DSM 30008; conditions: DSM 30008
Method in brief: as §1

[3] = system: Klebsiella pneumoniae SSI #3010; conditions: SSI #3010
Method in brief: as §1

Escherichia coli 926415 = conditions: 926415
Method in brief: as §1

[4] = system: Escherichia coli ATCC 25922; conditions: ATCC 25922
Method in brief: as §1

[5] = system: Klebsiella pneumoniae 968733; conditions: 968733
Method in brief: as §1

[6] = system: Pseudomonas aeruginosa ATCC 27853; conditions: ATCC 27853
Method in brief: as §1

[7] = system: Enterobacter cloacae 848840; conditions: 848840
Method in brief: as §1

[8] = system: human red blood cells (hRBC); assay: Hemolysis; conditions: red cells of human, 1 h, 200
Method in brief: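 Read-out is supernatant absorbance at 540 nm, normalised to full lysis by 2% Triton X-100 and zero lysis by PBS with 10% water. Peptides (200 μg/mL) were exposed to 20% v/v washed human erythrocytes at 37° C for 1 h under shaking.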

| Structure (SMILES) | MIC [1] | MIC [2] | MIC [3] | MIC (Escherichia coli 926415) | MIC [4] | MIC [5] | MIC [6] | MIC [7] | Hemolysis at 200 μg/mL [8] |
| --- | --- | --- | --- | --- | --- | --- | --- | --- | --- |
| CC(C)C[C@@H]1NC(=O)[C@@H](CC(C)C)NC(=O)[C@H](CCN)NC(=O)[C@@H](NC(=O)[C@H](CCN)NC(=O)[C@@H](NC(=O)[C@H](CCN)NC(=O)CC[C@@H]2NC(=O)[C@H](CCN)NC(=O)[C@H](Cc3ccc(O)cc3)NC(=O)[C@@H](NC(=O)[C@@H](O)C(C)C)CSSC[C@@H](C(=O)N[C@H](CO)[C@@H](C)O)NC(=O)[C@H](C(C)(C)C)NC(=O)[C@H](CO)NC(=O)[C@H](Cc3c[nH]c4ccccc34)NC(=O)[C@H](CCO)NC(=O)[C@@H](CCN)NC2=O)[C@@H](C)O)CCNC(=O)[C@H]([C@@H](C)O)NC(=O)[C@H](CCN)NC(=O)[C@H](CCN)NC1=O [Ex. 74] (I: H-[Hiv]CY[Dab]E[dDab][hSer]WS[Tle]C[Thr(ol)] / II: [Dab]T[Dab][Dab][Dab][dL]L[Dab][Dab]T; disulfide I:2-I:11; amide I:5-II:N; lactam II:4-II:C) | 0.0625 µg/mL (≈ 0.026 µM) | 0.0625 µg/mL (≈ 0.026 µM) | 0.0625 µg/mL (≈ 0.026 µM) | 0.25 µg/mL (≈ 0.104 µM) | 0.0625 µg/mL (≈ 0.026 µM) | 0.0625 µg/mL (≈ 0.026 µM) | 0.25 µg/mL (≈ 0.104 µM) | 0.125 µg/mL (≈ 0.0521 µM) | <1% |
| CC(C)C[C@@H]1NC(=O)[C@@H](CC(C)C)NC(=O)[C@H](CCN)NC(=O)[C@@H](NC(=O)[C@H](CCN)NC(=O)[C@@H](NC(=O)[C@H](CCN)NC(=O)CC[C@@H]2NC(=O)[C@H](CCN)NC(=O)[C@H](Cc3ccc(O)cc3)NC(=O)[C@@H](NC(=O)[C@@H](O)C(C)C)CSSC[C@@H](C(=O)N[C@H](CO)[C@@H](C)O)NC(=O)[C@H](C(C)(C)C)NC(=O)[C@H](CO)NC(=O)[C@H](Cc3c[nH]c4ccccc34)NC(=O)[C@H](CCO)NC(=O)[C@@H](CCCNC(=N)N)NC2=O)[C@@H](C)O)CCNC(=O)[C@H]([C@@H](C)O)NC(=O)[C@H](CCN)NC(=O)[C@H](CCN)NC1=O [Ex. 75] (I: H-[Hiv]CY[Dab]E[dR][hSer]WS[Tle]C[Thr(ol)] / II: [Dab]T[Dab][Dab][Dab][dL]L[Dab][Dab]T; disulfide I:2-I:11; amide I:5-II:N; lactam II:4-II:C) | 0.0625 µg/mL (≈ 0.0254 µM) | 0.0625 µg/mL (≈ 0.0254 µM) | 0.125 µg/mL (≈ 0.0509 µM) | 0.125 µg/mL (≈ 0.0509 µM) | 0.0625 µg/mL (≈ 0.0254 µM) | 0.125 µg/mL (≈ 0.0509 µM) | 0.125 µg/mL (≈ 0.0509 µM) | 0.125 µg/mL (≈ 0.0509 µM) | <1% |
| CC(C)C[C@@H]1NC(=O)[C@@H](CC(C)C)NC(=O)[C@H](CCN)NC(=O)[C@@H](NC(=O)[C@H](CCN)NC(=O)[C@@H](NC(=O)[C@H](CCN)NC(=O)CC[C@@H]2NC(=O)[C@H](CCN)NC(=O)[C@H](Cc3ccc(O)cc3)NC(=O)[C@@H](NC(=O)[C@@H](O)C(C)C)CSSC[C@@H](C(=O)N[C@H](CO)[C@@H](C)O)NC(=O)[C@H](C(C)(C)C)NC(=O)[C@H]([C@@H](C)O)NC(=O)[C@H](Cc3c[nH]c4ccccc34)NC(=O)[C@H](CCO)NC(=O)[C@@H](CCN)NC2=O)[C@@H](C)O)CCNC(=O)[C@H]([C@@H](C)O)NC(=O)[C@H](CCN)NC(=O)[C@H](CCN)NC1=O [Ex. 76] (I: H-[Hiv]CY[Dab]E[dDab][hSer]WT[Tle]C[Thr(ol)] / II: [Dab]T[Dab][Dab][Dab][dL]L[Dab][Dab]T; disulfide I:2-I:11; amide I:5-II:N; lactam II:4-II:C) | 0.25 µg/mL (≈ 0.104 µM) | 0.0625 µg/mL (≈ 0.0259 µM) | 0.125 µg/mL (≈ 0.0518 µM) | 0.125 µg/mL (≈ 0.0518 µM) | 0.0625 µg/mL (≈ 0.0259 µM) | 0.125 µg/mL (≈ 0.0518 µM) | 0.25 µg/mL (≈ 0.104 µM) | 0.125 µg/mL (≈ 0.0518 µM) | 1% |
| CC(C)C[C@@H]1NC(=O)[C@@H](CC(C)C)NC(=O)[C@H](CCN)NC(=O)[C@@H](NC(=O)[C@H](CCN)NC(=O)[C@@H](NC(=O)[C@H](CCN)NC(=O)CC[C@@H]2NC(=O)[C@H](CCN)NC(=O)[C@H](Cc3ccc(O)cc3)NC(=O)[C@@H](NC(=O)[C@@H]3CCC(=O)N3)CSSC[C@@H](C(=O)N[C@H](CO)[C@@H](C)O)NC(=O)[C@H](C(C)(C)C)NC(=O)[C@H](CO)NC(=O)[C@H](Cc3c[nH]c4ccccc34)NC(=O)[C@H](CCO)NC(=O)[C@@H](CCN)NC2=O)[C@@H](C)O)CCNC(=O)[C@H]([C@@H](C)O)NC(=O)[C@H](CCN)NC(=O)[C@H](CCN)NC1=O [Ex. 77] (I: [pGlu]CY[Dab]E[dDab][hSer]WS[Tle]C[Thr(ol)] / II: [Dab]T[Dab][Dab][Dab][dL]L[Dab][Dab]T; disulfide I:2-I:11; amide I:5-II:N; lactam II:4-II:C) | 0.25 µg/mL (≈ 0.104 µM) | 0.125 µg/mL (≈ 0.0518 µM) | 0.125 µg/mL (≈ 0.0518 µM) | 0.25 µg/mL (≈ 0.104 µM) | 0.125 µg/mL (≈ 0.0518 µM) | 0.25 µg/mL (≈ 0.104 µM) | 0.125 µg/mL (≈ 0.0518 µM) | 0.25 µg/mL (≈ 0.104 µM) | <1% |
| CC(C)C[C@@H]1NC(=O)[C@@H](CC(C)C)NC(=O)[C@H](CCN)NC(=O)[C@@H](NC(=O)[C@H](CCN)NC(=O)[C@@H](NC(=O)[C@H](CCN)NC(=O)CC[C@@H]2NC(=O)[C@H](CCN)NC(=O)[C@H](Cc3ccc(O)cc3)NC(=O)[C@@H](NC(=O)[C@@H](O)C(C)C)CSSC[C@@H](C(=O)N[C@H](CO)[C@@H](C)O)NC(=O)[C@H](C(C)C)NC(=O)[C@H](CO)NC(=O)[C@H](Cc3c[nH]c4ccccc34)NC(=O)[C@H](CCO)NC(=O)[C@@H](CCN)NC2=O)[C@@H](C)O)CCNC(=O)[C@H]([C@@H](C)O)NC(=O)[C@H](CCN)NC(=O)[C@H](CCN)NC1=O [Ex. 78] (I: H-[Hiv]CY[Dab]E[dDab][hSer]WSVC[Thr(ol)] / II: [Dab]T[Dab][Dab][Dab][dL]L[Dab][Dab]T; disulfide I:2-I:11; amide I:5-II:N; lactam II:4-II:C) | 0.125 µg/mL (≈ 0.0524 µM) | 0.0625 µg/mL (≈ 0.0262 µM) | 0.25 µg/mL (≈ 0.105 µM) | 0.125 µg/mL (≈ 0.0524 µM) | 0.03125 µg/mL (≈ 0.0131 µM) | 0.0625 µg/mL (≈ 0.0262 µM) | 0.125 µg/mL (≈ 0.0524 µM) | 2 µg/mL (≈ 0.838 µM) | <1% |
| CC(C)C[C@@H]1NC(=O)[C@@H](CC(C)C)NC(=O)[C@H](CCN)NC(=O)[C@@H](NC(=O)[C@H](CCN)NC(=O)[C@@H](NC(=O)[C@H](CCN)NC(=O)CC[C@@H]2NC(=O)[C@H](CN)NC(=O)[C@H](Cc3ccc(O)cc3)NC(=O)[C@@H](NC(=O)[C@@H](O)C(C)C)CSSC[C@@H](C(=O)N[C@H](CO)[C@@H](C)O)NC(=O)[C@H](C(C)(C)C)NC(=O)[C@H](CO)NC(=O)[C@H](Cc3c[nH]c4ccccc34)NC(=O)[C@H](CCO)NC(=O)[C@@H](CCN)NC2=O)[C@@H](C)O)CCNC(=O)[C@H]([C@@H](C)O)NC(=O)[C@H](CCN)NC(=O)[C@H](CCN)NC1=O [Ex. 79] (I: H-[Hiv]CY[Dap]E[dDab][hSer]WS[Tle]C[Thr(ol)] / II: [Dab]T[Dab][Dab][Dab][dL]L[Dab][Dab]T; disulfide I:2-I:11; amide I:5-II:N; lactam II:4-II:C) | 0.0625 µg/mL (≈ 0.0262 µM) | 0.03125 µg/mL (≈ 0.0131 µM) | 0.0625 µg/mL (≈ 0.0262 µM) | 0.0625 µg/mL (≈ 0.0262 µM) | 0.0625 µg/mL (≈ 0.0262 µM) | 0.0625 µg/mL (≈ 0.0262 µM) | 0.125 µg/mL (≈ 0.0524 µM) | 0.0625 µg/mL (≈ 0.0262 µM) | <1% |
| CC(C)C[C@@H]1NC(=O)[C@@H](CC(C)C)NC(=O)[C@H](CCN)NC(=O)[C@@H](NC(=O)[C@H](CCN)NC(=O)[C@@H](NC(=O)[C@H](CCN)NC(=O)CC[C@@H]2NC(=O)[C@H](CCN)NC(=O)[C@H](Cc3ccc(O)cc3)NC(=O)[C@@H](NC(=O)[C@@H](O)C(C)C)CSSC[C@@H](C(=O)N[C@H](CO)[C@@H](C)O)NC(=O)[C@H](C(C)(C)C)NC(=O)[C@H](CO)NC(=O)[C@H](Cc3c[nH]c4ccccc34)NC(=O)[C@H](CO)NC(=O)[C@@H](CCN)NC2=O)[C@@H](C)O)CCNC(=O)[C@H]([C@@H](C)O)NC(=O)[C@H](CCN)NC(=O)[C@H](CCN)NC1=O [Ex. 80] (I: H-[Hiv]CY[Dab]E[dDab]SWS[Tle]C[Thr(ol)] / II: [Dab]T[Dab][Dab][Dab][dL]L[Dab][Dab]T; disulfide I:2-I:11; amide I:5-II:N; lactam II:4-II:C) | 0.0625 µg/mL (≈ 0.0262 µM) | 0.125 µg/mL (≈ 0.0524 µM) | 0.125 µg/mL (≈ 0.0524 µM) | 0.0625 µg/mL (≈ 0.0262 µM) | 0.03125 µg/mL (≈ 0.0131 µM) | 0.125 µg/mL (≈ 0.0524 µM) | 0.125 µg/mL (≈ 0.0524 µM) | 0.125 µg/mL (≈ 0.0524 µM) | <1% |

— US11629171B2, “Beta-hairpin peptidomimetics” (POLYPHOR AG, priority 2017, dated 2023)
